Several values for one entry are separate records, joined by “and”; a condition that tells them apart may be missing. Equal values may be shown once.
Tests used:
Assay type in all cases: cell-based
[1] = target: T1, Nor1 (Homo sapiens, UniProt Q92570); assay: Luciferase reporter assay, Nor1 LBD, SK-N-BE(2)C cells; conditions: Fig. 1f; CQ 100 µM, 4A7C-301 20 µM, PGA1 10 µM
T1 construct: using LBD of NR4A subfamily members in SK-N-BE(2)C cells; expressed in transfected cells; host or cells: SK-N-BE(2)C

[2] = target: T2, Nurr1-LBD point mutants (Mus musculus, UniProt Q06219, K590A); assay: Luciferase assay with point-mutants of Nurr1-LBD, SK-N-BE(2)C cells;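 also: Firefly luciferase normalized to beta-galactosidase activity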; conditions: Supplementary Fig. 2, K590A
T2 construct: expressed in transfected cells; host or cells: SK-N-BE(2)C
Procedure: (§1) Nurr1 transactivity was normalized to β-galactosidase activity.
(§2) Nurr1 mutants were generated using the QuikChange ǁ XL site-directed mutagenesis kit (Agilent Technologies) according to the manufacturer’s instruction. Mutagenesis reactions were carried out on the plasmid of mouse Nurr1 cloned into pcDNA3.1 backbone, and then verified by sequencing.

[3] = target: T3, Nurr1-LBD point mutants (Mus musculus, UniProt Q06219, L593A); assay: as above; conditions: Supplementary Fig. 2, L593A
T3 construct: expressed in transfected cells; host or cells: SK-N-BE(2)C
Procedure: as §1, §2

[4] = target: T4, Nurr1-LBD point mutants (Mus musculus, UniProt Q06219, S441A); assay: as above; conditions: Supplementary Fig. 2, S441A
T4 construct: expressed in transfected cells; host or cells: SK-N-BE(2)C
Procedure: as §1, §2

[5] = target: T5, Nurr1-LBD point mutants (Mus musculus, UniProt Q06219); assay: as above; conditions: Supplementary Fig. 2, WT
T5 construct: expressed in transfected cells; host or cells: SK-N-BE(2)C
Procedure: as §1, §2

[6] = target: T6, Nurr1-LBD point mutants (Mus musculus, UniProt Q06219, D594A); assay: as above; conditions: Supplementary Fig. 2, D594A
T6 construct: expressed in transfected cells; host or cells: SK-N-BE(2)C
Procedure: as §1, §2

T6 sequence (Q06219 whole entry D594A, the tested form may be a part): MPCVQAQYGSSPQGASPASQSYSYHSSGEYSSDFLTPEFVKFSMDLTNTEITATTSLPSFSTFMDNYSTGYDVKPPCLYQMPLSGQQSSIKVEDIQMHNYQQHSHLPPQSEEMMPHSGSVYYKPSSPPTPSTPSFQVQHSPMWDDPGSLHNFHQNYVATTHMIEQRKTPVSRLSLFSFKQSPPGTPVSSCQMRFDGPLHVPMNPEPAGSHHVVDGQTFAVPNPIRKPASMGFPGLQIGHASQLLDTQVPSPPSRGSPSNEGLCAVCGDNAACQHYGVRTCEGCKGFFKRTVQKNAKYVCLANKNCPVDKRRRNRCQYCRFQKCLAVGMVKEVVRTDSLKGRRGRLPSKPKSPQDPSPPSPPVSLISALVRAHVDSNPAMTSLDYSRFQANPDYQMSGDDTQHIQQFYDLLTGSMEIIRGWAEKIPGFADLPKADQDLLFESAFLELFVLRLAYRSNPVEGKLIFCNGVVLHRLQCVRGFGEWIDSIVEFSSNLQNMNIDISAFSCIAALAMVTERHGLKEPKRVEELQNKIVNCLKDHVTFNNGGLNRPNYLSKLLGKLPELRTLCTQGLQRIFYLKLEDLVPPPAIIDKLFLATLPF
T1 sequence (Q92570 394-623 limits assumed): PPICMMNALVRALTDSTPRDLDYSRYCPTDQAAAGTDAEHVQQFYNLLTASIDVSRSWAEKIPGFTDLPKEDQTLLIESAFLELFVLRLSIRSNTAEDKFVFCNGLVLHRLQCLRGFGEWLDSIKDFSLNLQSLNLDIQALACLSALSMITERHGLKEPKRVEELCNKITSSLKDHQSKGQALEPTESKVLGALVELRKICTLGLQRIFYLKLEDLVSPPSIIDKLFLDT
T4 sequence (Q06219 whole entry S441A, the tested form may be a part): as the sequence (Q06219 whole entry D594A, the tested form may be a part) above, with S441A, A594D counted along it
T3 sequence (Q06219 whole entry L593A, the tested form may be a part): as the sequence (Q06219 whole entry D594A, the tested form may be a part) above, with L593A, A594D counted along it
T5 sequence (Q06219 whole entry, change not shown, the tested form may be a part): as the sequence (Q06219 whole entry D594A, the tested form may be a part) above, with A594D counted along it
T2 sequence (Q06219 whole entry K590A, the tested form may be a part): as the sequence (Q06219 whole entry D594A, the tested form may be a part) above, with K590A, A594D counted along it

Luciferase activity (fold), Nor1 [1]: 8.223 fold and 7.904 fold and 8.304 fold
Structure (SMILES): CCCCC[C@H](O)/C=C/[C@H]1C=CC(=O)[C@@H]1CCCCCCC(=O)O [PGA1, Prostaglandin A1]
Luciferase activity (fold) [2]: 12.5774 fold and 11.0052 fold and 12.4192 fold
Luciferase activity (fold) [3]: 11.666 fold and 12.1821 fold and 11.0369 fold
Luciferase activity (fold) [4]: 12.6359 fold and 12.6237 fold and 10.9807 fold
Luciferase activity (fold) [5]: 12.6112 fold and 12.2963 fold and 12.2061 fold
Luciferase activity (fold) [6]: 12.291 fold and 11.1318 fold and 11.3674 fold

Source: paper PMC10354055, “An optimized Nurr1 agonist provides disease-modifying effects in Parkinson’s disease models” (Nature Communications, 2023)
